One test addresses HTR2A (Homo sapiens, UniProt P28223). As to the kind of experiment: cell-based. Also on record: TRUPATH BRET2 G-protein dissociation; antagonist mode against agonist EC80. The note with it: HEK293, read-out: N-Desmethyl Xanomeline, Assay=Gq; agonist mode, % of control agonist.
The next test has as its target T1, 5-HT4 (Homo sapiens, UniProt Q13639).
T1 construct: gene HTR4
As to the kind of experiment: biochemical. Also on record: species or system HEK293; PDSP competitive radioligand binding, membranes of transfected HEK293 cells, filtration, Ki by Cheng-Prusoff. The note with it: read-out: N-desmethyl-xanomeline (PDSP) pKi (converted). The protocol: (§1) Competitive radioligand binding assays were performed at the NIMH Psychoactive Drug Screening Program (PDSP) using membranes from transiently transfected HEK293 cells in 96-well format as described. Complete, target-specific protocols are available at the PDSP website (https://pdsp.unc.edu/pdspweb/?site=assays). Primary screenings were run at a single test concentration (10 µM) in quadruplicate. […] Secondary assays were conducted in triplicate using 12-point serial dilutions (0, 0.1, 0.3, 1, 3, 10, 30, 100, 300 nM; 1, 3, 10 µM). Assays were performed in a final volume of 125 µL per well in binding buffer, as detailed in the NIMH PDSP protocols (e.g., standard binding buffer: 50 mM Tris-HCl, pH 7.4, 10 mM MgCl2, 0.1 mM EDTA). Radioligand concentrations were chosen near the target-specific Kd. Total and nonspecific binding were defined in the absence and presence, respectively, of 10 µM reference ligand specific for each receptor. After 90 min incubation at room temperature, reactions were terminated by vacuum filtration onto 0.3% polyethyleneimine-pretreated UniFilter-96 GF/C Microplates using a FilterMate harvester, washed three times with ice-cold buffer (50 mM Tris HCl, pH 7.4), dried, treated with MicroScint-O [compound left out] scintillation cocktails, and counted on a MicroBeta counter. Equilibrium inhibition constants (Ki) were calculated from fitted IC50 values using the Cheng–Prusoff equation [14] with the assay-specific radioligand concentration and Kd. TABLE 1. […] Results represented mean ± SEM from a minimum of 3 independent assays, each in triplicate. ND=not determined.

In a further test the target is DRD1 (Homo sapiens, UniProt P21728). Kind of test: biochemical. Also on record: species or system HEK293; PDSP competitive radioligand binding, membranes of transfected HEK293 cells, filtration, Ki by Cheng-Prusoff. The note with it: read-out: N-desmethyl-xanomeline (PDSP) pKi (converted). The protocol:
as §1

The target in a further test is β2 (Homo sapiens, UniProt P07550). Kind of test: competitive radioligand binding, HEK293 membranes. Also on record: gene ADRB2; full-length receptor; HEK293 cell membranes. The source says:
competitive radioligand binding, HEK293 membranes on β2

The target in the next test is T2, H3 (Homo sapiens, UniProt Q9Y5N1).
T2 construct: gene HRH3; full-length receptor; HEK293 cell membranes
Kind of test: competitive radioligand binding, HEK293 membranes. The source says: competitive radioligand binding, HEK293 membranes on H3

In another test the target is T3, 5-HT1E (Homo sapiens, UniProt P28566).
T3 construct: gene HTR1E
Kind of test: biochemical. More on the design: species or system HEK293; PDSP competitive radioligand binding, membranes of transfected HEK293 cells, filtration, Ki by Cheng-Prusoff. The method, then:
as §1

The target of another test is T4, 5-HT6 (Homo sapiens, UniProt P50406).
T4 construct: gene HTR6
Kind of test: biochemical. Also on record: species or system HEK293; PDSP competitive radioligand binding, membranes of transfected HEK293 cells, filtration, Ki by Cheng-Prusoff. The method, then:
as §1

In the next test the target is T5, DAT (Homo sapiens, UniProt Q01959).
T5 construct: gene SLC6A3
Kind of test: biochemical. Also on record: species or system HEK293; PDSP competitive radioligand binding, membranes of transfected HEK293 cells, filtration, Ki by Cheng-Prusoff. The protocol:
as §1

A further test has as its target HRH4 (Homo sapiens, UniProt Q9H3N8). As to the kind of experiment: biochemical. Also on record: species or system HEK293; PDSP competitive radioligand binding, membranes of transfected HEK293 cells, filtration, Ki by Cheng-Prusoff. The method, then: as §1
A further test concerns the target T6, HTR1A (Homo sapiens, UniProt P08908).
T6 sequence (P08908 1-422): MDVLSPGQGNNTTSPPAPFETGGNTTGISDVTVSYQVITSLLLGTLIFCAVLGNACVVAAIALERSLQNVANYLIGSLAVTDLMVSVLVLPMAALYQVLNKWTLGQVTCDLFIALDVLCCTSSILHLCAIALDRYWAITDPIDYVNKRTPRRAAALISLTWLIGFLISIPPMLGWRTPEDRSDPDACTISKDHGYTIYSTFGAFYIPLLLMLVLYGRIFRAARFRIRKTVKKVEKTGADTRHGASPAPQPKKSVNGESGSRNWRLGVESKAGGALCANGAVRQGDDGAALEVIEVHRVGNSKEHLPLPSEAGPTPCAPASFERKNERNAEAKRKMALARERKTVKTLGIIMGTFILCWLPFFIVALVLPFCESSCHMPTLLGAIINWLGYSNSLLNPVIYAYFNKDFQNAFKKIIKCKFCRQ
As to the kind of experiment: biochemical. Also on record: species or system HEK293; PDSP competitive radioligand binding, membranes of transfected HEK293 cells, filtration, Ki by Cheng-Prusoff. The method, then:
as §1

In the next test the target is T7, β3 (Homo sapiens, UniProt P13945).
T7 construct: gene ADRB3
Kind of test: biochemical. More on the design: species or system HEK293; PDSP competitive radioligand binding, membranes of transfected HEK293 cells, filtration, Ki by Cheng-Prusoff. The method, then:
as §1

Chain of β2 (P07550 whole entry): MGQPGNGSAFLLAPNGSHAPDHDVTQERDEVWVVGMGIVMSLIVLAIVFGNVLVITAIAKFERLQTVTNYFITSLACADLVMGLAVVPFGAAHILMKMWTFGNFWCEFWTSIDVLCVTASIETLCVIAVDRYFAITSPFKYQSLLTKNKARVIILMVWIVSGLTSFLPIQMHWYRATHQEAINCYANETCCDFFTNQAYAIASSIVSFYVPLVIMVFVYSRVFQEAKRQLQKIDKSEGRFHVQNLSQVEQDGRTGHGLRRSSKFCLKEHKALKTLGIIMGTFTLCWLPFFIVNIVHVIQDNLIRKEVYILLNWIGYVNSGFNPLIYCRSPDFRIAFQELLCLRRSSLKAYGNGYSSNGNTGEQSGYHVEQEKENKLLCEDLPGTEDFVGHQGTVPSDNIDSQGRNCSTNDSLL
T7 sequence (P13945 whole entry): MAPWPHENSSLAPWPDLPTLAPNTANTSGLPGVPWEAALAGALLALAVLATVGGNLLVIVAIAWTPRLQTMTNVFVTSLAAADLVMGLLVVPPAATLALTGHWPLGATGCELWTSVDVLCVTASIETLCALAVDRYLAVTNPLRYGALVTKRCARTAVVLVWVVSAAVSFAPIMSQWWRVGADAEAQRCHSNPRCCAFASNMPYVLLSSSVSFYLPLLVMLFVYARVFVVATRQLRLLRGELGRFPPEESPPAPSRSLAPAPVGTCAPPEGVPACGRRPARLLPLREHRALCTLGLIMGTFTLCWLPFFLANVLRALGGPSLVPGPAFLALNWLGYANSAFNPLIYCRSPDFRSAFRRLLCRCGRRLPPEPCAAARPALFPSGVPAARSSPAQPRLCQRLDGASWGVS
Chain of DRD1 (P21728 whole entry): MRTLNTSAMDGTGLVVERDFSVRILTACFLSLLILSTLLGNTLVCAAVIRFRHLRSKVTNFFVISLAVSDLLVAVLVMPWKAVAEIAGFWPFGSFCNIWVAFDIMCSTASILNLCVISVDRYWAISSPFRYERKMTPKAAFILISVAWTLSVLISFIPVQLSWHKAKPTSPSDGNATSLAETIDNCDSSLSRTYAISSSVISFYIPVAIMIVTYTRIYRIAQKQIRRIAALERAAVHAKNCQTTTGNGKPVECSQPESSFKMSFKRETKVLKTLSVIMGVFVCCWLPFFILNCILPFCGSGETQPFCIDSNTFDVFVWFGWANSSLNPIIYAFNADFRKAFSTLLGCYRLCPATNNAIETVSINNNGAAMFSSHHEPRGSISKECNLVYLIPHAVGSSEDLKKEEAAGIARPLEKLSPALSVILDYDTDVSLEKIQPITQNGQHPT
Chain of HRH4 (Q9H3N8 whole entry): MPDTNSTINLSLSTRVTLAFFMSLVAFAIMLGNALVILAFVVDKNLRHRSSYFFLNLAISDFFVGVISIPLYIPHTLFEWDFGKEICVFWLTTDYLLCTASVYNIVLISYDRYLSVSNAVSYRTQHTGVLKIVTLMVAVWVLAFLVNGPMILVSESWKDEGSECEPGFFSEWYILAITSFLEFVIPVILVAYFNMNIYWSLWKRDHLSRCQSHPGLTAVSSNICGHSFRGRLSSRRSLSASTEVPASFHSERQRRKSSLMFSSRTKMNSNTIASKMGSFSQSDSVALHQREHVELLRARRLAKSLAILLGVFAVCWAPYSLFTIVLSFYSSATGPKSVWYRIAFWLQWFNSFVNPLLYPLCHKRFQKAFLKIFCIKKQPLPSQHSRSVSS
T3 sequence (P28566 whole entry): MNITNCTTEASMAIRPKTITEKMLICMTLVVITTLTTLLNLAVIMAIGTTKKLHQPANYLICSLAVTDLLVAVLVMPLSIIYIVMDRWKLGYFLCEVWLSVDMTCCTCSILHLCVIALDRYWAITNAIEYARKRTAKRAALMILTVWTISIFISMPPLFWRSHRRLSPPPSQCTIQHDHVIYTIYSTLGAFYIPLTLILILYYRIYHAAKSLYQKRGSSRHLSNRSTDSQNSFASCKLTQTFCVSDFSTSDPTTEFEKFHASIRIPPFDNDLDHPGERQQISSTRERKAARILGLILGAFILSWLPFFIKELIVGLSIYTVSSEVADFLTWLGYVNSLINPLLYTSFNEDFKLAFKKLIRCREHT
T1 sequence (Q13639 whole entry): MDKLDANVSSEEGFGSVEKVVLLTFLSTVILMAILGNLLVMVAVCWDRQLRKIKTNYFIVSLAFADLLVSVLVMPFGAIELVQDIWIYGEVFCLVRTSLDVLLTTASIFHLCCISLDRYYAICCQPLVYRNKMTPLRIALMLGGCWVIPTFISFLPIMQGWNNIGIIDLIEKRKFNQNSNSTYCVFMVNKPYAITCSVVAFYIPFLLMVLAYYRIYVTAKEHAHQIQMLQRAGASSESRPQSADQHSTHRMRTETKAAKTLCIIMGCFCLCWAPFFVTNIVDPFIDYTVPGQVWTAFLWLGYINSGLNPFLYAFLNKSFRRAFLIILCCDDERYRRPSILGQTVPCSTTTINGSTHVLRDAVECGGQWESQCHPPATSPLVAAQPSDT
T4 sequence (P50406 whole entry): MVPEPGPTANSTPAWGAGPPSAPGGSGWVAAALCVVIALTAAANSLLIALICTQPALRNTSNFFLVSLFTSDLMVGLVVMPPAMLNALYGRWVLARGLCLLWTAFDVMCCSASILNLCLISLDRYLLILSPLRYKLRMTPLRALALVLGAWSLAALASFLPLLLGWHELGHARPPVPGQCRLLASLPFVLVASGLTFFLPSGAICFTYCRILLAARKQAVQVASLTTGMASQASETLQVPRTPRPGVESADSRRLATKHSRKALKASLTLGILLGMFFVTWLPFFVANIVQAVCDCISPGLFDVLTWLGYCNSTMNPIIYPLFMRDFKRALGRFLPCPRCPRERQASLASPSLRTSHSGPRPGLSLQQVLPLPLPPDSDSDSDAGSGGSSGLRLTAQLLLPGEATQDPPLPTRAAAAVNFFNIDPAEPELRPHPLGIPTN
T5 sequence (Q01959 whole entry): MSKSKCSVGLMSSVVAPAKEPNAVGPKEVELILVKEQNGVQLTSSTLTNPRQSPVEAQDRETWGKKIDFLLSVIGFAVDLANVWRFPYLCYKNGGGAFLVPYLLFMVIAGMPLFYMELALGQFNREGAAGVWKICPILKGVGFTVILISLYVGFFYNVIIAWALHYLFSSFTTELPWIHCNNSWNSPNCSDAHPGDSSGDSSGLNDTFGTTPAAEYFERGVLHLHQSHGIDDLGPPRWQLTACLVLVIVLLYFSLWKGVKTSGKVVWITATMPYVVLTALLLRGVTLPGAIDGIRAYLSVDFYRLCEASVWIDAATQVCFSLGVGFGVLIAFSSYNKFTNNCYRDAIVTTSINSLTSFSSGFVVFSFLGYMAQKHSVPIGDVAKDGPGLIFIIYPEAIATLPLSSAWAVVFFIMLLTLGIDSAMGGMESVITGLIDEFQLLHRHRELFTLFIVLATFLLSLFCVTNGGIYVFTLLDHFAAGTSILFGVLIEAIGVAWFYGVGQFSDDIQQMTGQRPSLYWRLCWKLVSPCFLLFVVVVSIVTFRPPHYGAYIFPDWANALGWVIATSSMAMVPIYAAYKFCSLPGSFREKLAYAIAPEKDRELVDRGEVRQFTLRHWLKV
T2 sequence (Q9Y5N1 whole entry): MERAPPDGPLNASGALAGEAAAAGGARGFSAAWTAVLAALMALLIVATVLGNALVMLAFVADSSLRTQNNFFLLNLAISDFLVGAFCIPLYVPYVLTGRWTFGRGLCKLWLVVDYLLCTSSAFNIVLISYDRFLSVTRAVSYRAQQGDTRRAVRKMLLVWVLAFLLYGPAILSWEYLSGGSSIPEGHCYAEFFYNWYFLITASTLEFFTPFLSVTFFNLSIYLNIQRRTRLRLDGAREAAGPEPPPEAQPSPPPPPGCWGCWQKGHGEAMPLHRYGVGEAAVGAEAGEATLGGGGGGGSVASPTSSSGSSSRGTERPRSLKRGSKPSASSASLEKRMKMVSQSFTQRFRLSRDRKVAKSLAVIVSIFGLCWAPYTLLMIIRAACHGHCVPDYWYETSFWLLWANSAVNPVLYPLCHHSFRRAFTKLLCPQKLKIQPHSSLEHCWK
Chain of HTR2A (P28223 whole entry): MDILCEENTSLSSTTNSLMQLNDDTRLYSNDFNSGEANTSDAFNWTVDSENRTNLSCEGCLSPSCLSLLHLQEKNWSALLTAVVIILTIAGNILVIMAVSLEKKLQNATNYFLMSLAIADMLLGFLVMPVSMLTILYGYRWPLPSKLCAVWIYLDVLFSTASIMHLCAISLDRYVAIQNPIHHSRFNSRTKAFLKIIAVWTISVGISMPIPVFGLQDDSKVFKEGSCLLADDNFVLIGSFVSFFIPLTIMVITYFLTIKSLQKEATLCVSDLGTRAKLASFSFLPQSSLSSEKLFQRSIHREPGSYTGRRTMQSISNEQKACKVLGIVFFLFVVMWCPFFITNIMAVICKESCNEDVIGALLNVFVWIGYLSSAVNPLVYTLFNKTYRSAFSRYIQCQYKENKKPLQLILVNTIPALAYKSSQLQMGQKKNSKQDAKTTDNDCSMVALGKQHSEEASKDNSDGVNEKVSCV

As for `CCCCCCOc1nsnc1C1=CCCNC1` [N-desmethylxanomeline], the Emax at HTR2A was found to be 98.1%. In addition, the Ki was 3.72 µM at 5-HT4, 2.34 µM on DRD1 and 0.832 µM at β2.
`CCCCCCOc1nsnc1C1=CCCN(C)C1` [Xanomeline]: the Ki on H3 was 0.794 µM; on 5-HT1E, more than 10 µM; at 5-HT6, 3.98 µM; on DAT it was more than 10 µM; at HRH4, more than 10 µM; at HTR1A, 5.89 µM. At β3, this compound returned a Ki of more than 10 µM.

The values above are taken from doi:10.1101/2025.11.20.689572v1 (biorxiv, 2025).
